Non-standard residues stand in square brackets, D forms with d. Residues, ends and D or L forms follow the SMILES beside them. *: point of attachment. 1Nal = N[C@@H](Cc1cccc2ccccc12)C(=O)O; Cbz = O=C(OCc1ccccc1)*
Work on Fc1ccc(C2OC3(CCNCC3)N3CCCCC23)cc1 (centres undefined) yielded a melting point of 112 to 114 °C. In the case of CC(C)(Cc1c2c(nn1CCO)c(N)nc1ccccc12)NS(C)(=O)=O, the melting point is reported as 203 to 204 °C. Molecule Clc1ccccc1C(c1ccccc1)(c1ccccc1)n1cccn1 has a melting point of 135 °C. O=C(OCc1cc(OCCCO)c(OCCCO)c(OCCCO)c1)c1ccccc1 gave a melting point of 54 to 55 °C. Work on O=c1cc(N2CCOCC2)oc2c(O)cccc12 yielded a melting point of 240 to 247 °C. Work on CC=CCN1C(=O)c2ccccc2Oc2ncccc21 yielded a melting point of 79 to 81 °C. With CC(=O)c1c(C)[nH]c(-c2ccccc2C)c1N the melting point was 258 °C. For Nc1nc2ccc(C(F)(F)C(F)(F)F)cc2s1, the melting point was 100 °C. In the case of CC(C)C[C@@H](C=O)NC(=O)[C@H](Cc1c[nH]cn1)NC(=O)[C@H](Cc1cccc2ccccc12)NC(=O)OCc1ccccc1 (Cbz-[1Nal]-His-Leu-aldehyde), the melting point is reported as 106 to 108 °C. Molecule N#Cc1cccc(CCn2ncc3c(=O)n(-c4ccccc4)c4ncccc4c32)c1 has a melting point of 220 to 224 °C. Work on CCN(CC)C(=O)c1ccc(OC)cc1-c1ccccc1 yielded a melting point of 64 to 65 °C. With COC(=O)CCCc1cc2nc(Cl)ccc2n1S(=O)(=O)c1ccccc1C(F)(F)F the melting point was 127 °C. For Cc1ncoc1C(C)(O)c1cccs1 (centres undefined), the melting point was 84 to 85 °C. In the case of CCCC(=O)Cc1ccc(C(=O)Nc2ccc3cc(CN4CCCC4)cnc3c2C)cc1, the melting point is reported as 139 to 140 °C. O=c1ccn([C@@H]2C=CCC[C@@H]2O)c(=O)[nH]1 (racemic) showed a melting point of 203 °C. Molecule CCOC(=O)c1cn(C2CC2)c2cc(-c3cc(C)nc(CO)c3)c(F)cc2c1=O has a melting point of 240 °C. COc1cc(CNC(=O)c2nc3cnn(CCCc4ccccc4)c3c(=O)[nH]2)ccc1F gave a melting point of 155 to 157 °C. Work on NC1C=CC=CN1NS(=O)n1ccnc1 (centres undefined) yielded a melting point of 174 to 175 °C. Molecule Cc1nc(-c2cc(C(=O)O)c(=O)[nH]c2C)cs1 has a melting point of 297 to 299 °C. CC(C)(C)OC(=O)c1ccc(NC2CCc3cc4nc(COCc5ccccc5)[nH]c(=O)c4cc32)cc1 (racemic) gave a melting point of 194 to 195 °C. With CC(=O)N[C@@H](CSC(=O)C(C)C)C(=O)NCCSC(=O)C(C)C the melting point was 99 to 100 °C. Molecule CC(C)(C)[Si](Oc1ccc(OCC2CO2)cc1)(c1ccccc1)c1ccccc1 (centres undefined) has a melting point of 97 to 98 °C. For CC(C)Oc1cccc(OC(=O)NCc2c(-c3ccccc3)c3cc(Cl)ccc3c(=O)n2C)c1, the melting point was 158 to 160 °C. In the case of Clc1cnc(Oc2cccc(Oc3ncc(Cl)cn3)c2)nc1, the melting point is reported as 120 °C. CC1(C)CCC2(Cc3ccc(Cl)cc3)OC2C1=O (centres undefined) showed a melting point of 69 to 70 °C. Molecule OCC[Si](c1ccccc1)(c1ccccc1)c1ccccc1 has a melting point of 96 to 97 °C. Work on NC(=O)NCCS(=O)CC(O)CO (centres undefined) yielded a melting point of 102 °C. In the case of CC(=O)Nc1ccc(OCc2nc3ccc(F)cc3s2)cc1, the melting point is reported as 204 to 205 °C. In the case of O=c1[nH]c(=O)n(C2CC(OCc3ccccc3Cl)C(CO)O2)cc1F (centres undefined), the melting point is reported as 78 to 80 °C. In the case of NC(=O)c1ncn2c(-c3cccnc3)ccnc12, the melting point is reported as greater than 260 °C. COC(CN1CCN(c2cccc(-n3cnc4cc(C(C)=O)ccc43)c2)CC1)=NOC(C)C showed a melting point of 120 to 121 °C. O=C1c2ccccc2C(=O)N1CCCCOc1cccc2c1SCCC2 showed a melting point of 116 °C. CCCCCCC1CCC(c2ccc(CCCCC)cc2)OC1=O (centres undefined) gave a melting point of 101 to 102 °C. O=C(c1ccccc1)c1[nH]c2cc(Cl)ccc2c1NC(=O)C(F)(F)F gave a melting point of 165 to 168 °C. With Cc1cc(-c2ccc(Cl)cc2)nc(-n2cnc(-c3ncc(S(N)(=O)=O)s3)c2)n1 the melting point was 256 °C. In the case of COc1ccc(-c2ccc(C(=O)Nc3ccc4cc(CN5CCCC5)cnc4c3)cn2)cc1, the melting point is reported as 246 to 248 °C. Molecule COc1ccc(N(C(=O)Nc2cc(C)c(S(=O)(=O)C[N+](=O)[O-])c(C)c2)c2ccc(OC)cc2)cc1 has a melting point of 150 to 151 °C. In the case of C[C@H]1c2cc(F)ccc2-c2ccccc2N1S(=O)(=O)c1ccc(OS(N)(=O)=O)cc1, the melting point is reported as 166 to 167 °C. Molecule Cc1ccc([N+](=O)[O-])c(C=O)c1C has a melting point of 66 to 68 °C. CCCC(=O)C(Cc1ccc(-c2ccccc2-c2nnn[nH]2)cc1)C(=O)OCC (centres undefined) gave a melting point of 65 °C. CSc1cn(CC(C)N(O)C(N)=O)c2ccccc12 (centres undefined) gave a melting point of 87 to 90 °C. Work on CCCC(=O)c1cnc2c(O)cccc2c1Nc1ccccc1C yielded a melting point of 113 to 115 °C. For CCONC(=O)NNC(=O)CC, the melting point was 122 °C. For CSc1c(O[C@H]2CC[C@H](NCc3ccccc3)CC2)ccc2[nH]ncc12, the melting point was 136 °C. In the case of CCOCc1nc2c(N)nc3ccccc3c2n1CCCCS(=O)(=O)NCc1ccc(OC)cc1, the melting point is reported as 101 °C. Molecule O=C(O)[C@H](CCc1ccccc1)NS(=O)(=O)c1ccc2c(c1)Cc1ccccc1O2 has a melting point of 138 to 142 °C. Nc1ccc2ccc(-c3ccc(F)cc3)nc2n1 showed a melting point of 175 °C. With O=S(=O)(c1ccc(Cl)cc1)C(c1ccncc1)C1CCOCC1 (centres undefined) the melting point was 208 to 209 °C. For O=c1nc(Nc2ccc(Cl)cc2)sc2ncccc12, the melting point was 278 to 279 °C. Molecule CN(C)c1ccc(C=Cc2ccc(S(=O)(=O)CCCCCCCCCCCO)cc2)cc1 has a melting point of 153 to 155 °C. With CS(=O)(=O)c1ccc(C2=C(c3ccc(F)c(F)c3)CCC2)cc1 the melting point was 114 to 115 °C. In the case of O=C1C(c2ccccc2)=CC(=O)c2c(O)c(-c3ccccc3)cc(O)c21, the melting point is reported as 170 to 173 °C. In the case of C=CCNC(=O)n1nc(NC)n(C)c1=O, the melting point is reported as 136 to 137 °C. CCCNC(=O)NCC1CCCCC1 gave a melting point of 60 to 61 °C. With O=C(O)c1ccc(-c2nnc(-c3ccc(C(F)(F)F)cc3)o2)cc1 the melting point was greater than 300 °C. Molecule CCS(=O)c1nn(-c2ccccc2)c(=O)c2c(N)scc12 (centres undefined) has a melting point of 204 to 205 °C. COc1ccc2c(c1)C(=O)c1c-2c(Nc2ccc(C(C)=O)cc2)nc2ccccc12 gave a melting point of 251 to 252 °C. For COC(=O)c1ccc(C(=O)CC(=O)OCc2ccccc2)cc1, the melting point was 71 °C. Nc1ccncc1C(=NO)c1ccccc1F showed a melting point of 212 to 214 °C. For COc1ccc(C(=O)Nc2ccc3c(c2)CCC3=O)cc1, the melting point was 237 to 238 °C. With O=C1OCC(c2ccccc2)C1CS (centres undefined) the melting point was 41 to 42 °C. Molecule CCC12CCC(=O)C3Oc4c(O)ccc5c4C31CCN(CC1CC1)C2C5 (centres undefined) has a melting point of 157 to 158 °C. For [N-]=[N+]=C1CCCCCCCCCCC1=O, the melting point was 43 to 44 °C. For O=C(C=Cc1ccccc1[N+](=O)[O-])CC(=O)NC1CC1, the melting point was 133 to 134 °C. CON(c1ccc([N+](=O)[O-])cc1F)S(=O)(=O)c1ccc(Cl)c(C(F)(F)F)c1 gave a melting point of 104 to 106 °C. In the case of C=Cc1cn(-c2c(Cl)cc(C(F)(F)F)cc2Cl)nc1C(F)(F)F, the melting point is reported as 95 to 98 °C. CC(C)(C)OC(=O)NC1Cc2ccccc2C2OC12 (centres undefined) gave a melting point of 118 to 119 °C. Work on Cc1cc(C=O)ccc1-c1ccc(O)cc1 yielded a melting point of 94 to 96 °C. COc1ccc(C(=O)Oc2ccc(C(=O)O)cc2C(=O)O)cc1C12CC3CC(CC(C3)C1)C2 showed a melting point of 172 to 173 °C. In the case of Cc1nn(C)c(=O)n1-c1ccc(N)cc1, the melting point is reported as 160 °C. For O=c1c2cc3ccccc3cc2oc2cc(OCC3CS3)cc(O)c12 (centres undefined), the melting point was 189 to 190 °C. Molecule Cc1cc(C(=O)c2ccc(O)cc2)ccc1[N+](=O)[O-] has a melting point of 146 to 148 °C. With O=C(O)CP(=O)(c1ccccc1)c1ccccc1 the melting point was 143 to 146 °C. Molecule CCn1ccc(OC2c3cc(C#N)ccc3OC(C)(C)C2(C)O)cc1=O (centres undefined) has a melting point of 166 to 168 °C.
